These results are taken from PMC9376946, “Peptide-RNA Coacervates as a Cradle for the Evolution of Folded Domains” (Journal of the American Chemical Society, 2022).

For data set [1] the following is noted: earlier study, trifluoroethanol titration followed by CD; ref [17]; cited from earlier work.
In data set [2] the test system is polyU. The data set is described as follows: Coacervate (droplet) formation with polyU, optical microscopy. In kind it is physicochemical. How it is done: Optical microscopy images of phase-separated samples were taken at the de Picciotto Cancer Cell Observatory Life Sciences Core Facilities (Weizmann Institute of Science) using a 100× objective (oil immersion) on a Leica DMI8 microscope with differential interface contrast. We used 1–2 μL of the sample to make a small drop in an imaging chamber produced by attaching a coverslip to a clean glass slide using a thin strip of double-sided tape (AJ Sign World). Images were processed using the software package Fiji (NIH).
Lyophilized, spin-labeled peptides were dissolved in Milli-Q water and centrifuged at 4000 rpm for 10 min to remove insoluble aggregates. The soluble fractions were used to prepare stock solutions of 250–500 μM peptide. Labeled peptide concentrations were determined by comparing the area under the curve of the EPR signal against that of standard solutions of 10–285 μM TEMPO. For the EPR measurements in D2O, 200 μL of the stock solution was lyophilized and re-dissolved in D2O. The concentration of the unlabeled peptide stock solutions was determined using the bicinchoninic acid assay (Thermo Fisher Scientific) and ranged from 0.8 to 1.2 mM peptide. A stock solution of 500 mM MES, pH 5.6 was used to adjust all samples to a final concentration of 50 mM MES, pH 5.6. Aliquots of 10 mg/mL polyuridylic acid (polyU; Sigma Aldrich) were prepared in Milli-Q water and diluted as necessary. For CW-EPR measurements, a quartz capillary of 0.6 mm i.d. and 0.84 mm o.d. was filled with 7–8 μL of the sample and sealed with Critoseal (Fisherbrand, Fisher Scientific) at one end. A single capillary was placed in an X-band EPR tube of 2 mm i.d. and 2.4 mm o.d. for measurements, except for spin concentration below 50 μM, where two capillaries were used.
Each sample was freshly prepared and the time to collect […] CW-EPR data was 30–40 min.

The subject of data set [3] is polyU. The settings on record: ref [17]; cited from earlier work. The source says: The basis for the work presented here is the construct Precursor-Arg (PA).[17] PA consists of a single helix-hairpin-helix (HhH) motif and is constructed from an alphabet of only 10 amino acid types. The sequence of PA (Table 1) is biased specifically for those amino acids that were thought to be present on the early earth[35] and is the result of an ancestor sequence reconstruction of the (HhH)2-Fold protein family followed by an experimental deconstruction.[17] PA has two positively charged patches—located at the N-terminus of the first α-helix (residues 1–4, RIRR) and on the second α-helix ... || Using the ColabFold implementation of AlphaFold2,[33] a model of a putative PA dimer was predicted (Figure 1A). […] The dimerization potential of PA was further confirmed by MD simulations (Figure S6). […] This option relies on the dimer having conformations where positive and negative charges are separated, allowing for efficient bidentate binding to the polyU.

Take RVRRSEIPLGIELEAGTLRLARRPEIRVA [SA]: the α-helical propensity entry in data set [1] is “lower α-helical propensity than PA”. Moreover, the “coacervate formation with polyU” value with polyU [2] (concentrations not given) is given as “did not form coacervates with polyU”; in the data set with polyU [2] (unlabeled peptide, 1 mg/mL polyU, aggregation also previously reported, ref [17]) it was “did not form coacervates but rather aggregates”. Moreover, the “coacervate formation or precipitation with polyU (earlier study)” value in the data set on polyU [3] is “precipitates with polyU rather than forms coacervates”.
